# Like-named read-outs stand apart in the source and are kept apart here.
# Legend:
# [1] = biological target: Recombinant human NEP (Homo sapiens, UniProt P08473); test: in vitro NEP cleavage assay (disappearance of non-cleaved CNP variant)
# In short: (§1)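 Recombinant human NEP (1 ug/mL final) incubated with 100 uM CNP variant in 0.1 M Tris, pH 7, at 37° C for various times, then quenched with EDTA (10 mM final) and heat. Samples reduced and analysed by HPLC and mass spectrometry. Half-life derived from loss of intact variant over time.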
# [2] = biological target: neutral endopeptidase (NEP) (Homo sapiens, UniProt P08473); test: in vitro; conditions: human, pH 7
# In short: as §1
# [3] = system: wild type mice; conditions: mouse, in vivo
# [4] = pharmacokinetics in rats (plasma CNP immunoreactivity by RIA); type: in vivo, rat
# Protocol: Recombinant wild-type CNP22, CNP37 and PEO24-GANRR-CNP22 […]) (SEQ ID NO: 36) were evaluated. […] Standard and QC samples were prepared. […] Plasma CNP immunoreactivity was employed for pharmacokinetics (PK) analysis. PK analysis was performed using WINNONLIN® Professional (Pharsight Corporation).
# [5] = IgG assay (immunogenicity) in mice
# Protocol: An IgG assay was performed to assess whether an IgG immune response was triggered by 5 week exposure of achondroplastic FGFR3^ach mice to CNP22, CNP37 or PEO24-GANRR-CNP22(K4R) (“CNP27-PEO24”) (SEQ ID NO: 36). IgG is the most predominant immunoglobulin in mouse and human serum and is produced as part of the secondary immune response to an antigen. The IgG response to administration of the CNP peptides was determined as follows. 96-well plates were coated with 100 ng/mL CNP22, CNP37 or PEO24-GANRR-CNP22(K4R) (SEQ ID NO: 36) in BupH PBS buffer (Pierce/Thermo, Cat. No. 28372, Rockford, Ill.). After overnight incubation, plates were blocked with Casein-PBS blocking buffer (Pierce/Thermo, Cat. No. 37528) for two hours at room temperature with shaking at 300 rpm. After washing with wash buffer (1×PBS with 0.05% Tween), diluted serum samples from a terminal bleed (diluted 1:25) were added to the plate. Positive and negative controls were also loaded onto the plate. Positive control was 1:25 diluted serum (pooled from 6 individual FVB mice) with anti-CNP22 antibody added (Bachem rabbit anti-CNP22 IgG, Cat. No. T-4222) at 1:1000 dilution. Negative control was the diluted pooled serum. After two hours of incubation, the plates were washed and secondary antibody diluted in blocking buffer was added to the wells. For the mouse serum samples, anti-mouse IgG Fcγ (peroxidase-conjugated affinipure goat anti-mouse IgG, Fcγ fragment, Cat. No. 115-035-071, Jackson Immunoresearch, West Grove, Pa.) was added at a 1:10,000 dilution. For the positive and negative controls, anti-rabbit IgG-HRP (Santa Cruz Biotechnology, Cat. No. SC-2004, Santa Cruz, Calif.) was added to blocking buffer. After two hours of incubation at room temperature with shaking at 300 rpm, plates were washed with wash buffer. 100 uL of TMB (One-step TMB, Pierce/Thermo, Cat. No. 34022) was added to all wells. Plates were incubated at room temperature for 15 minutes with shaking at 300 rpm. Colorimetric reactions were stopped by the addition of 100 uL of 2 N H2SO4. Plates were read at 450 nm (Spectramax, Molecular Devices, Sunnyvale, Calif.) and data was analyzed using SoftMax Pro software (Molecular Devices).
# The immunogenic response of wild-type mice administered G-CNP37, PEO12-GANRR-CNP22(K4R) (SEQ ID NO: 36) or Pro-Gly-CNP37, as measured by an increase in serum IgG level, was also assessed by examining terminal bleed serum samples as described above.
# [6] = normal human; cited from earlier work
# [7] = biological target: NPR-B (Homo sapiens, UniProt P20594); conditions: read-out: affinity to NPR-B; cited from earlier work
# [8] = biological target: NPR-C (Homo sapiens, UniProt P17342); conditions: read-out: affinity to NPR-C; cited from earlier work
# [9] = system: wild-type FVB mice; conditions: mouse, in vivo
# From the text: Group 1 included vehicle-treated mice injected s.c. daily for 9 weeks followed by 1 week of no treatment. Group 2 included mice treated with Pro-Gly-CNP37 (20 nmol/kg) once daily for 1 week, followed by three doses per week for 8 weeks, followed by 1 week of no treatment. Group 3 contained mice treated with Pro-Gly-CNP37 (20 nmol/kg) once daily in alternate weeks (weeks 1, 3, 5, 7 and 9), with 1 week of no treatment following each week of treatment. Group 4 contained mice treated with Pro-Gly-CNP37 (5 nmol/kg) once daily for 9 weeks followed by 1 week of no treatment. Finally, Group 5 included mice treated with Pro-Gly-CNP37 (5 nmol/kg) once daily for 5 weeks without any week of no treatment. Terminal bleed serum was collected from the mice, and cleaved collagen type II, total alkaline phosphatase and total antibody levels were measured therefrom. Cleaved collagen type II levels were measured as described above. Total alkaline phosphatase levels, predominantly from the liver and bones, were measured with the assistance of a veterinary diagnostic laboratory testing facility (Antech). […] Among the advantages of the ECLA platform, any isotype of antibody (IgG, IgM, etc.) can be detected, and the ECLA assay is species-independent. […] At the end of the 1 hour incubation, the MSD plate was washed and 150 uL of 2× read buffer (MSD Cat. No. R92TC-2) was added to the plate. […]
# [10] = system: wild type FVB mice; test: dose responses of CNP variants in wild type FVB mice; conditions: mouse, in vivo
# Protocol: Tail length and body weight were measured over the course of treatment. Animals were sacrificed at the end of the experiment and bone length assessed.
# Sequence of Recombinant human NEP (P08473 whole entry): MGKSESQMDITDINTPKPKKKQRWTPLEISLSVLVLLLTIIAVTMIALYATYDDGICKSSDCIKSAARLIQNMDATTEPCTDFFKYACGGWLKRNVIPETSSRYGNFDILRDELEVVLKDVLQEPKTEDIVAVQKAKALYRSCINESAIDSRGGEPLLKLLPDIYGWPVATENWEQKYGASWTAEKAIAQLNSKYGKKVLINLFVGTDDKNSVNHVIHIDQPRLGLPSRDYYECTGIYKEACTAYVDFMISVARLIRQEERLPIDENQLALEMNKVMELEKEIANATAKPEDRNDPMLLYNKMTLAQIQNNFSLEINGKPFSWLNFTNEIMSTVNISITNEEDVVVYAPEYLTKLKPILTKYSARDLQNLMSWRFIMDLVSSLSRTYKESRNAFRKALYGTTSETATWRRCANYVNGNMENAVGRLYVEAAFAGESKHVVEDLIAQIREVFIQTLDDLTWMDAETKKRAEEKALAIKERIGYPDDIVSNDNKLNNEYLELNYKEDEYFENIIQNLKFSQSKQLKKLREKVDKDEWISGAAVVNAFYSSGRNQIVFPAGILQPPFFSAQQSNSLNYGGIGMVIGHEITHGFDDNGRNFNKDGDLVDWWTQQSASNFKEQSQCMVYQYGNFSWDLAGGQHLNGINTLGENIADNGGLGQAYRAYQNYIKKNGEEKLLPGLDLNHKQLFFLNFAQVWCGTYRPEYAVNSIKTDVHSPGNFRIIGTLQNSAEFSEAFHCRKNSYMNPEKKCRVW
# Sequence of neutral endopeptidase (NEP) (P08473 whole entry): as above
# Sequence of NPR-C (P17342 27-541, species assumed): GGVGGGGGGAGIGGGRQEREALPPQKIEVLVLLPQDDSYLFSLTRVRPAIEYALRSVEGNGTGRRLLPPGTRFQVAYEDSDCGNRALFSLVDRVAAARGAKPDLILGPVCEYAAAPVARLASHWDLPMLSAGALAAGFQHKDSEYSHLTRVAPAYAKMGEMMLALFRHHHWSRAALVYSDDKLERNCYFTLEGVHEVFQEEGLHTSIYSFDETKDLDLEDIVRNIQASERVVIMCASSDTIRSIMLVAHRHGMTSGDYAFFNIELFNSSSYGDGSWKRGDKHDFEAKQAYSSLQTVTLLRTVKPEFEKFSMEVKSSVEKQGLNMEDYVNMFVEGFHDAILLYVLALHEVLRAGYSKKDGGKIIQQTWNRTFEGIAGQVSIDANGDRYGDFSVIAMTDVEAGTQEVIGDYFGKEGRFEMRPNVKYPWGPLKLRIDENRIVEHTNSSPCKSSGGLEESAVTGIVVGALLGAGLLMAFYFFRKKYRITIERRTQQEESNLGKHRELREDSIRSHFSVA
# Sequence of NPR-B (P20594 23-1047, species assumed): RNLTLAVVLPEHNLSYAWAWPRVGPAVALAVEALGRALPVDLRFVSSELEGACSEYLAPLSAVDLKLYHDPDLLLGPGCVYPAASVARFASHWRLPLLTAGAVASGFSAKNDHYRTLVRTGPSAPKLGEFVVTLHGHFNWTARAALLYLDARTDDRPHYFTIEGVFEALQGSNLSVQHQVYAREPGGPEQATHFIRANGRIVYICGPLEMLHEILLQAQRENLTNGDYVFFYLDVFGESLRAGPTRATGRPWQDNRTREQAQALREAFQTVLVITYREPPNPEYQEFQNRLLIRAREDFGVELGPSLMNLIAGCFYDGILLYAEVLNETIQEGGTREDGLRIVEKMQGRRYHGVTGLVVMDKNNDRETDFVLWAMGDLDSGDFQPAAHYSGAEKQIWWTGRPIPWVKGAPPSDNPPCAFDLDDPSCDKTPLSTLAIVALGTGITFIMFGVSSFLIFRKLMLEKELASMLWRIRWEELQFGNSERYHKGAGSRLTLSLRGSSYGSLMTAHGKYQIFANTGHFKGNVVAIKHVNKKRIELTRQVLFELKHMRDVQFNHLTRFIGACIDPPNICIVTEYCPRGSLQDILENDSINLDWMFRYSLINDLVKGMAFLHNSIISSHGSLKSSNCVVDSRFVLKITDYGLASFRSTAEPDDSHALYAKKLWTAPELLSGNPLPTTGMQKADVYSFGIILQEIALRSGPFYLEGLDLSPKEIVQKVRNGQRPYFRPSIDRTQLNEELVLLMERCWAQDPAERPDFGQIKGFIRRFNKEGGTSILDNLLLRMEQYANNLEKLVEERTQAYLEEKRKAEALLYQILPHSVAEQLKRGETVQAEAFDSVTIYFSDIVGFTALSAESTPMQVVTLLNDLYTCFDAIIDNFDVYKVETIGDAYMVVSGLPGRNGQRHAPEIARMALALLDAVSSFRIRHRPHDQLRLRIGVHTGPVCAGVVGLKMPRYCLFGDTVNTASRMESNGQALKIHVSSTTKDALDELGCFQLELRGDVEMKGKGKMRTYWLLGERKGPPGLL
resistance to NEP cleavage (in words) [1],anti-CNP antibodies (IgG antibody response) [3],SMILES,half-life at 100 uM [2] [h],"NEP Cleavage (t1/2, min) ([1]; 100 uM peptide, 1 ug/mL NEP, 0.1 M Tris pH 7, 37° C., adjusted t1/2, CNP22 normalized to 80 min) [min]","area under the curve, AUC (pmol·min/mL) ([4]; i.v. 20 nmol/kg)",bioavailability ([4]; s.c. 50 nmol/kg) [%],"IgG immune response ([5]; FGFR3^ach mice, 5 week exposure, 200 nmol/kg)",in vivo (plasma) half-life [6] [min],Kd [7] [pM],Kd [8] [pM],"resistance to NEP cleavage (in words) ([1]; in vitro NEP assay, assay period 160 minutes)","IgG immune response ([5]; wild-type mice, 5 weeks)",antibody response in the total antibody assay [9],organ weight compared with vehicle treated animals [10]
most resistant to NEP degradation,elicited and IgG antibody response,CC[C@H](C)[C@@H]1NC(=O)[C@H](CCCNC(=N)N)NC(=O)[C@H](CC(=O)O)NC(=O)[C@H](CC(C)C)NC(=O)[C@H](CCCCN)NC(=O)[C@H](CC(C)C)NC(=O)CNC(=O)[C@H](Cc2ccccc2)NC(=O)[C@@H](NC(=O)CNC(=O)[C@H](CCCCN)NC(=O)[C@H](CO)NC(=O)[C@H](CC(C)C)NC(=O)CNC(=O)[C@H](CCCCN)NC(=O)[C@H](CCCCN)NC(=O)[C@H](CC(N)=O)NC(=O)[C@H](C)NC(=O)CNC(=O)[C@H](CCCCN)NC(=O)[C@H](Cc2ccccc2)NC(=O)[C@H](CCCNC(=N)N)NC(=O)[C@H](Cc2c[nH]cn2)NC(=O)[C@H](C)NC(=O)[C@@H](NC(=O)[C@H](CCC(=O)O)NC(=O)[C@H](CO)NC(=O)[C@H](CCCCN)NC(=O)[C@H](Cc2c[nH]cn2)NC(=O)CN)C(C)C)CSSC[C@@H](C(=O)O)NC(=O)CNC(=O)[C@H](CC(C)C)NC(=O)CNC(=O)[C@H](CO)NC(=O)[C@H](CCSC)NC(=O)[C@H](CO)NC(=O)CNC1=O [HSA-CNP27],> 2.67,–,–,–,–,–,–,–,–,–,–,–
–,–,"CC[C@H](C)[C@@H]1NC(=O)[C@H](CCCNC(=N)N)NC(=O)[C@H](CC(=O)O)NC(=O)[C@H](CC(C)C)NC(=O)[C@H](CCCCN)NC(=O)[C@H](CC(C)C)NC(=O)CNC(=O)[C@H](Cc2ccccc2)NC(=O)[C@@H](NC(=O)CNC(=O)[C@H](CCCCN)NC(=O)[C@H](CO)NC(=O)[C@H](CC(C)C)NC(=O)CN)CSSC[C@@H](C(=O)O)NC(=O)CNC(=O)[C@H](CC(C)C)NC(=O)CNC(=O)[C@H](CO)NC(=O)[C@H](CCSC)NC(=O)[C@H](CO)NC(=O)CNC1=O [CNP22, reference compound]",–,80,320 (±54) pmol·min/mL,19,no positive IgG immune response in any of the mice,2.6,7 to 30,11 to 140,–,–,–,–
–,–,CC[C@H](C)[C@@H]1NC(=O)[C@H](CCCNC(=N)N)NC(=O)[C@H](CC(=O)O)NC(=O)[C@H](CC(C)C)NC(=O)[C@H](CCCCN)NC(=O)[C@H](CC(C)C)NC(=O)CNC(=O)[C@H](Cc2ccccc2)NC(=O)[C@@H](NC(=O)CNC(=O)[C@H](CCCCN)NC(=O)[C@H](CO)NC(=O)[C@H](CC(C)C)NC(=O)CNC(=O)[C@H](CCCCN)NC(=O)[C@H](CCCCN)NC(=O)[C@H](CC(N)=O)NC(=O)[C@H](C)NC(=O)CNC(=O)[C@H](CCCCN)NC(=O)[C@H](Cc2ccc(O)cc2)NC(=O)[C@H](CCCCN)NC(=O)[C@H](CCCNC(=N)N)NC(=O)[C@H](C)NC(=O)[C@H](CC(N)=O)NC(=O)[C@@H]2CCCN2C(=O)[C@H](Cc2c[nH]cn2)NC(=O)[C@H](CCC(=O)O)NC(=O)[C@H](CCC(N)=O)NC(=O)CNC(=O)[C@@H]2CCCN2)CSSC[C@@H](C(=O)O)NC(=O)CNC(=O)[C@H](CC(C)C)NC(=O)CNC(=O)[C@H](CO)NC(=O)[C@H](CCSC)NC(=O)[C@H](CO)NC(=O)CNC1=O [Pro-Gly-CNP37],> 2.67,–,–,–,–,–,–,–,most resistant to NEP degradation,None of the wild-type mice,did not show a positive antibody response,no significant changes
